Legend:
[1] = Stability in cell culture medium (floxuridine release, HPLC); type: in vitro ADME
Experimental: The frozen samples were thawed and homogenized by vortex mixing. A 10 μl aliquot of the sample was transferred into a clean EPPENDORF tube. Samples were diluted with 190 μl methanol: water mixture (1:1, v/v). The tubes were vortex mixed and centrifuged for 10 min. The supernatant was transferred to HPLC vials and 10 μl volume of the sample was injected onto the HPLC system.

DU145 = test: Sulforhodamine B (SRB) growth inhibition assay; type: cell-based, Human; conditions: Homo sapiens, DU-145, SRB assay, cells exposed for 24 h, read-out: GI50 values (μM) DU145
Experimental: (§1) The aim was to determine the GI50 values for PEG-floxuridine conjugates against a panel of cell lines, and based on previous data from Xenograft studies. […] The test articles were solubilized in dimethylsulfoxide and were tested at four different molar (M) concentrations; 10^−4, 10^−5, 10^−6, M. GI50 (the concentration needed to reduce the growth of treated cells to half that of untreated control cells) was calculated for each condition ([(Ti−Tz)/(C-Tz)]×100=50, where Ti, Tz, and C refer to absorbance values obtained from each tested concentration, time zero, and control treatment, respectively).
as §1, with “The objective” for “The aim”, “the IC50” for “the GI50”, “for PEG-gemcitabine” for “for PEG-floxuridine”, “in dimethyl sulfoxide” for “in dimethylsulfoxide”, “10^−6, 10^−7” for “10^−6,”, “condition ([(Ti−Tz)/(C−Tz)]×100=50,” for “condition ([(Ti−Tz)/(C-Tz)]×100=50,”

in vitro [2] = conditions: human, Caco-2
From the text: (§5) Bi-Directional Permeability of PEG-Floxuridine Conjugates in Caco-2 and MDCK Cells

[3] = Bi-directional permeability in Caco-2 cells; conditions: human
From the text: as §5

CAKI-1 = test: In vitro cytotoxicity assay (CellTiter-Glo); type: cell-based; conditions: Homo sapiens, 72 h exposure, CellTiter-Glo
HT29 = test: Sulforhodamine B (SRB) growth inhibition assay; type: cell-based, Human; conditions: Homo sapiens, HT-29, SRB assay, cells exposed for 24 h, read-out: GI50 values (μM) HT29
Experimental: (§2) In Vitro Screening of PEG-Gemcitabine Monophosphate in Selected Human Cancer Cell Lines
as §1
as §1, with “The objective” for “The aim”, “the IC50” for “the GI50”, “for PEG-gemcitabine” for “for PEG-floxuridine”, “in dimethyl sulfoxide” for “in dimethylsulfoxide”, “10^−6, 10^−7” for “10^−6,”, “condition ([(Ti−Tz)/(C−Tz)]×100=50,” for “condition ([(Ti−Tz)/(C-Tz)]×100=50,”

MCF7 = test: Sulforhodamine B (SRB) growth inhibition assay; type: cell-based, Human; conditions: Homo sapiens, SRB assay, cells exposed for 24 h, read-out: GI50 values (μM) MCF7
Experimental: as §2, §1
as §1, with “The objective” for “The aim”, “the IC50” for “the GI50”, “for PEG-gemcitabine” for “for PEG-floxuridine”, “in dimethyl sulfoxide” for “in dimethylsulfoxide”, “10^−6, 10^−7” for “10^−6,”, “condition ([(Ti−Tz)/(C−Tz)]×100=50,” for “condition ([(Ti−Tz)/(C-Tz)]×100=50,”

Hop62 = test: Sulforhodamine B (SRB) growth inhibition assay; type: cell-based, Human; conditions: Homo sapiens, HOP-62, SRB assay, cells exposed for 24 h, read-out: GI50 values (μM) Hop62
Experimental: as §2, §1
as §1, with “The objective” for “The aim”, “the IC50” for “the GI50”, “for PEG-gemcitabine” for “for PEG-floxuridine”, “in dimethyl sulfoxide” for “in dimethylsulfoxide”, “10^−6, 10^−7” for “10^−6,”, “condition ([(Ti−Tz)/(C−Tz)]×100=50,” for “condition ([(Ti−Tz)/(C-Tz)]×100=50,”

A2780 = test: Sulforhodamine B (SRB) growth inhibition assay; type: cell-based, Human; conditions: Homo sapiens, SRB assay, cells exposed for 24 h, read-out: GI50 values (μM) A2780
Experimental: as §2, §1
as §1, with “The objective” for “The aim”, “the IC50” for “the GI50”, “for PEG-gemcitabine” for “for PEG-floxuridine”, “in dimethyl sulfoxide” for “in dimethylsulfoxide”, “10^−6, 10^−7” for “10^−6,”, “condition ([(Ti−Tz)/(C−Tz)]×100=50,” for “condition ([(Ti−Tz)/(C-Tz)]×100=50,”

HT-29 = test: In vitro cytotoxicity assay (CellTiter-Glo); type: cell-based; conditions: Homo sapiens, 72 h exposure, CellTiter-Glo
Experimental: (§3) The objective of these studies were to determine the IC50 values for PEG-floxuridine conjugates against floxuridine-resistant cell lines based on data from previous Xenograft studies. The cells were exposed for 72 h, and cell viability assessed by using the CellTiter-Glo assay.
(§4) The objective of these studies was to determine the IC50 values for PEG-gemcitabine conjugates against gemcitabine-resistant cell lines based on data from previous Xenograft studies. The cells were exposed for 72 h, and cell viability assessed by using the CellTiter-Glo assay.

HCT-116 = test: In vitro cytotoxicity assay (CellTiter-Glo); type: cell-based; conditions: Homo sapiens, 72 h exposure, CellTiter-Glo
Experimental: as §3, §4

MIA PaCa-2 = test: In vitro cytotoxicity assay (CellTiter-Glo); type: cell-based; conditions: Homo sapiens, 72 h exposure, CellTiter-Glo
Experimental: as §3, §4

in vitro [4] = conditions: dog, MDCK
From the text: as §5

[5] = Bi-directional permeability in MDCK cells; conditions: dog
From the text: as §5

[6] = Caco-2, percent recovery A -> B
[7] = Caco-2, percent recovery B -> A

SMILES	Papp A→B (in vitro [2]) [×10⁻⁶ cm/s]	Papp B→A (in vitro [2]) [×10⁻⁶ cm/s]	efflux ratio (in vitro [2])	recovery [3, 6] [%]	recovery [3, 7] [%]	Significant efflux (MDCK cells)	permeability through MDCK monolayers (in words) (MDCK cells)	Significant efflux (Caco-2 cells)	permeability across Caco-2 monolayers (in words) (Caco-2 cells)	Papp A→B (in vitro [4]) [×10⁻⁶ cm/s]	Papp B→A (in vitro [4]) [×10⁻⁶ cm/s]	recovery ([5]; percent recovery A -> B) [%]	recovery ([5]; percent recovery B -> A) [%]	further results
O=c1[nH]c(=O)n([C@H]2C[C@H](O)[C@@H](CO)O2)cc1F [Floxuridine, reference compound]	0.75	1.47	2	75	91	No	poor permeability	No	poor permeability	< 2.46	< 2.7	50	82	Peak Area of measured floxuridine ([1]; HPLC, supernatant of MCF-7 culture after 48 h with test article): 119819; concentration of floxuridine estimated in culture medium ([1]; after cells were treated with test article): 24.44; Calculated Concentration (μg/mL) of floxuridine ([1]; diluted sample (10 μL diluted to 200 μL), MCF-7 culture supernatant, 48 h): 1.211 µg/mL; Total Calculated Concentration in the sample using dilution factor ([1]; floxuridine in MCF-7 culture supernatant, 48 h, nominal 24.6 μg/mL): 24.22; GI50 (DU145): 26 µM; IC50 (CAKI-1): 110 nM; GI50 (HT29): 25 µM; GI50 (MCF7): 0.15 µM; GI50 (Hop62): 0.24 µM; GI50 (A2780): 0.065 µM; IC50 (HT-29): 90 nM; IC50 (HCT-116): 32 nM; IC50 (MIA PaCa-2): 54 nM
CCCCCOC(=O)Nc1nc(=O)n([C@@H]2O[C@H](C)[C@@H](O)[C@H]2O)cc1F [Capecitabine]	2.22	8.71	3.9	110	99	No	relatively poor permeability	Yes	high permeability	0.16	0.14	104	99	Papp B-A/Papp A-B (MDCK cells; dog): 0.9; Absorption potential (Caco-2 cells): High; Papp B-A/Papp A-B (Caco-2 cells; human): 3.9; efflux ratio (in vitro [4]): 0.9

From patent US9365604B2, “Oligomer-nucleoside phosphate conjugates” (NEKTAR THERAPEUTICS, priority 2007, dated 2016)
